Laboratory results: US10414725B2, “Pyrrolomycins and methods of using the same” (priority 2015, dated 2019)
≈ marks a conversion by molar mass, not a printed value. Where two headings read alike, the source gives them in different places.

Assays:
[1] = system: Bacillus anthracis V770-NP1-R; assay: microbe, parasite or virus in culture; assay type: cell-based; details: V770NP1R, read-out: MIC BA
[2] = system: Staphyloccocus aureus USA300; assay: Minimum inhibitory concentration, broth microdilution, Staphylococcus aureus; assay type: cell-based; details: for MIC: Staphylococcus aureus
[3] = system: human Hela cells; assay: Mammalian cytotoxicity assay (CellTiter 96 AQueous One); assay type: cell-based; details: 24 h, highest concentration tested 100 μM, read-out: IC50 human Hela cell proliferation
[4] = system: Staphylococcus aureus; assay: Minimum bactericidal concentration / bactericidal activity against SA; assay type: cell-based; details: for MBC (100% killing of SA): 24 hours, n=4
[5] = system: S. aureus biofilms; assay: Anti-staphylococcal biofilm activity (static biofilms, cfu); assay type: cell-based, Staphylococcus aureus
[6] = Pharmacokinetics of pyrrolomycin 4 in mice (LC-MS/MS of plasma)
[7] = system: Bacillus anthracis; assay: microbe, parasite or virus in culture; details: 1 h, read-out: reduction of BA culture viability
[8] = Staphyloccocus aureus USA300, n ≥ 3, read-out: MIC SA

SMILES | MIC [1] [µg/mL] | melting point [°C] | MIC [2, 8] [µg/mL] | MIC ([2]; USA300, read-out: MIC SA) [µg/mL] | IC50 [3] [µg/mL] | further results
O=C(c1ccc[nH]1)c1cc(F)cc(F)c1O [Compound 9] | > 4 | 161.7 to 162.5 | > 4 | – | – | –
O=C(c1cc(Br)c(Br)[nH]1)c1cc(Cl)cc(Cl)c1O [Compound 17] | 0.188 (≈ 0.454 µM) | – | – | 0.073 (≈ 0.176 µM) | > 41.4 | –
O=C(c1cc(F)cc(F)c1O)c1[nH]c(Br)c(Br)c1Br [Compound 3] | 0.031 (≈ 0.0674 µM) | 151.8 to 152.7 | 0.17 (≈ 0.37 µM) | – | > 46 | –
CN[C@H](CC(C)C)C(=O)N[C@H]1C(=O)N[C@@H](CC(N)=O)C(=O)N[C@H]2C(=O)N[C@H]3C(=O)N[C@H](C(=O)N[C@H](C(=O)O)c4cc(O)cc(O)c4-c4cc3ccc4O)[C@H](O)c3ccc(c(Cl)c3)Oc3cc2cc(c3O[C@@H]2O[C@H](CO)[C@@H](O)[C@H](O)[C@H]2O[C@H]2C[C@](C)(N)[C@H](O)[C@H](C)O2)Oc2ccc(cc2Cl)[C@H]1O [vancomycin, reference compound] | – | – | 2 (≈ 1.38 µM) | – | – | MBC (100% killing of SA) [4]: 8 µg/mL; biofilm killing ([5]; 24 hours, 32 μg/mL, n=4): 11%; biofilm killing ([5]; 120 hours, 32 μg/mL): 39%
O=C(c1cc(Br)c(F)[nH]1)c1cc(Cl)cc(Cl)c1O [Compound 4] | 0.047 (≈ 0.133 µM) | – | – | 0.073 (≈ 0.207 µM) | > 35.3 | killing of SA ([4]; 4 μg/mL, no growth of colonies after incubation for 48 hours): 100%; MBC (100% killing of SA) [4]: 4 µg/mL; biofilm killing ([5]; 24 hours, 8.0 μg/mL, n=4): 84%; biofilm killing ([5]; 48 hours, 8.0 μg/mL): 97%; biofilm killing ([5]; 120 hours, 8.0 μg/mL): > 99.9%; oral bioavailability ([6]; 10 mg/kg oral vs 1.0 mg/kg IV): 35%; elimination half-life ([6]; IV): 6.04 h; time parent compound detectable in plasma ([6]; IV and oral, detection limit 0.8 ng/mL): up to 72 hours; AUC ([6]; IV dose 1 mg/kg): 3800 ng·h/mL; elimination half-life ([6]; oral): 6.75 h; AUC ([6]; oral dose 10 mg/kg): 13200 ng·h/mL; inhibition at […] [7]: 60%
O=C(c1ccc[nH]1)c1cc(Cl)cc(Cl)c1O [Compound 15] | > 4 | – | – | > 4 | – | –
COc1c(F)cc(F)cc1C(=O)c1c(Br)c(Br)c(Br)n1C [Compound 11] | > 4 | 107.4 to 108.1 | > 4 | – | – | –
O=C(c1cc(Br)c[nH]1)c1cc(Cl)cc(Cl)c1O [Compound 19] | – | – | – | > 4 | – | MIC SA ([2]; Staphyloccocus aureus USA300, n ≥ 3): >4.0 µg/mL
O=C(c1cc(Cl)cc(Cl)c1O)c1[nH]c(F)c(Br)c1Br [Compound 18] | 0.125 (≈ 0.289 µM) | 171.9 to 172.7 | 0.19 (≈ 0.44 µM) | – | > 43.2 | inhibition at […] [7]: 92%
COc1c(F)cc(F)cc1C(=O)c1[nH]c(Br)c(Br)c1Br [Compound 10] | 1.5 (≈ 3.17 µM) | 178.9 to 179.7 | 3 (≈ 6.33 µM) | – | – | –
Cn1c(Br)c(Br)c(Br)c1C(=O)c1cc(F)cc(F)c1O [Compound 12] | > 4 | 156.2 to 157.2 | > 4 | – | – | –
COc1c(F)cc(F)cc1C(=O)c1ccc[nH]1 [Compound 8] | > 4 | 85.7 to 87.1 | > 4 | – | – | –
